Laboratory results from PMC9147789, “Development and Validation of a Novel LC-MS/MS Method for the Simultaneous Determination of Abemaciclib, Palbociclib, Ribociclib, Anastrozole, Letrozole, and Fulvestrant in Plasma Samples: A Prerequisite for Personalized Breast Cancer Treatment” (Pharmaceuticals, 2022).

Legend:
[1] = Stability of the analytes in plasma (bench top, autosampler, freeze-thaw, long-term); type: physicochemical, human; settings: for Stability Bias (%) 1 FT Cycle (30 min, −18–25 °C) / Stability Bias (%) 2 FT Cycles (30 min, −18–25 °C) / Stability Bias (%) 3 FT Cycles (30 min, −18–25 °C) / Stability Bias (%) Long-Term (2 Weeks, −18 °C): plasma; for Stability Bias (%) 1 FT Cycle (30 min, −18–25 °C) / Stability Bias (%) 2 FT Cycles (30 min, −18–25 °C) / Stability Bias (%) 3 FT Cycles (30 min, −18–25 °C) / Stability Bias (%) Long-Term (2 Weeks, −18 °C) / Stability Bias (%) Autosampler (10 h, 10 °C): N = 3; for Stability Bias (%) Autosampler (10 h, 10 °C): processed plasma sample; for Stability Bias (%) Bench Top (2 h, 25 °C): unprocessed plasma, N = 3, vs fresh QC
Description: Stability of the stock and working solutions was determined in the preliminary studies. […] Patient plasma samples were stored long-term at −80 °C. Since adequate stability of plasma samples was proven at −18 °C, it was deemed acceptable at lower temperatures as well. Lower- and higher-concentration QC samples were prepared in triplicate for each condition and time point and were analyzed against QC samples freshly prepared in triplicate.

[2] = LC-MS/MS quantitation of drugs in single-point patient plasma samples (therapeutic drug monitoring); type: in vivo, human; settings: for concentration at 27 day: sampling day 27 (off-treatment week); for concentration at 1 h: patient 4
Description: Samples from ten women (ages 35 to 78, median 50.5 years) receiving regular treatment with a combination of a CDK4/6 inhibitor (PAL, RIB or ABE) and endocrine therapy (ANA, LET, FUL or exemestane, EXE) were obtained and analyzed using this LC-MS method. The samples were mostly taken in the elimination phase, during the patients’ regular visit to the hospital before the next dose administration, except in the case of patient 4 (sampling 1 h after dose administration). The aromatase inhibitors and ABE are continuously administered as single daily doses, FUL is a once-monthly intramuscular injection, and the dosing regimen of PAL and RIB involves a week off treatment every 21 days to minimize treatment-induced neutropenia.
The samples were analyzed against freshly prepared calibration curves. The results are listed in Table 7, while the accompanying chromatograms and mass spectra are included in the Supplementary Materials, Section 1, Figures S1–S29.
Healthy and patient blood samples were collected and pre-treated at the University Hospital Centre Zagreb, with signed informed consent. Patients receiving a combination of a CDK4/6 inhibitor and endocrine therapy as regular treatment for at least 4 months were enrolled.
Whole blood was collected in containers with K2-EDTA anticoagulant and centrifuged for 10 min at 1500 g; the supernatant was then withdrawn and stored at −18 °C (blank plasma) or −80 °C (patients’ plasma). Hemolyzed plasma was obtained by briefly freezing a whole blood sample at −18 °C before continuing with the procedure.
(§1) Calibration and QC samples were prepared by diluting 5 µL of the appropriate working solutions of the analytes with 45 µL of blank plasma in 1.5 mL polypropylene centrifuge tubes. In case of patient sample analysis, an aliquot of 50 µL of patient plasma was used. Proteins were precipitated by adding 200 µL of ACN, after which the samples were vortex-mixed for 10 s and centrifuged at 2000 g for 5 min. The resulting supernatant was collected and 200 µL was evaporated to dryness in a vacuum evaporator at room temperature. The dry residue was dissolved in 40 µL of 65% methanol, while 5 µL was injected into the chromatographic system.

[3] = plasma; cited from earlier work
[4] = design: method as in PMID 28540640; settings: plasma; reported PK/PD studies; cited from earlier work
[5] = Clinical pharmacokinetic evaluation of RIB in one patient, first day of a treatment cycle, non-compartmental analysis; type: in vivo, human; settings: 600 mg oral dose
Description: Finally, we applied our fully validated method to evaluate the pharmacokinetic disposition of RIB in a patient during the first day of a treatment cycle. The plasma samples were prepared in the same manner as the single-point study samples and quantitated using a freshly prepared calibration curve. No additional dilution or preconcentration was necessary, as all the determined concentrations fell within the validated range. The corresponding data are available in Table S1 of the Supplementary Materials, Section 2 (Results of the pharmacokinetic study).
Pharmacokinetic data were analyzed with the PK solver Excel extension, using the linear trapezoidal model for non-compartmental analysis of plasma data after extravascular input. […] The beginning of the elimination phase was estimated around three hours after dosing. Ribociclib is administered as an instant release tablet dosage form, so no absorption lag was neither expected nor observed.
as §1

[6] = higher QC level (RIB 2500, ABE 1500, PAL 250, ANA 100, LET 250, FUL 500 ng/mL)
[7] = lower QC level (RIB 62.5, ABE 37.5, PAL 6.2, ANA 2.5, LET 6.25, FUL 12.5 ng/mL)

| SMILES | Stability Bias (%) 1 FT Cycle (30 min, −18–25 °C) [1, 6] | Stability Bias (%) 2 FT Cycles (30 min, −18–25 °C) [1, 6] | Stability Bias (%) 3 FT Cycles (30 min, −18–25 °C) [1, 6] | Stability Bias (%) Long-Term (2 Weeks, −18 °C) [1, 6] | Stability Bias (%) 1 FT Cycle (30 min, −18–25 °C) [1, 7] | Stability Bias (%) 2 FT Cycles (30 min, −18–25 °C) [1, 7] | Stability Bias (%) 3 FT Cycles (30 min, −18–25 °C) [1, 7] | Stability Bias (%) Long-Term (2 Weeks, −18 °C) [1, 7] | Stability Bias (%) Autosampler (10 h, 10 °C) [1, 6] | Stability Bias (%) Autosampler (10 h, 10 °C) [1, 7] | Stability Bias (%) Bench Top (2 h, 25 °C) [1, 6] | Stability Bias (%) Bench Top (2 h, 25 °C) [1, 7] | Expected literature range Cmin–Cmax [3] | also measured |
| --- | --- | --- | --- | --- | --- | --- | --- | --- | --- | --- | --- | --- | --- | --- |
| CCN1CCN(Cc2ccc(Nc3ncc(F)c(-c4cc(F)c5nc(C)n(C(C)C)c5c4)n3)nc2)CC1 [ABE, abemaciclib] | 9.37% | 5.68% | 1.13% | 3.09% | 13.23% | −7.43% | 14.07% | 7.60% | 14.88% | 11.51% | −0.10% | 9.09% | 102.65–1381 [25] ng/mL | Plasma Concentration ([2]; patient 1, ABE 300 mg daily, continuous, before next dose): 425.79 ng/mL; Minimal threshold concentration for efficacy [4]: 200 ng/mL |
| CC(C)(C#N)c1cc(Cn2cncn2)cc(C(C)(C)C#N)c1 [ANA, anastrozole] | 6.65% | 8.39% | −0.69% | −0.40% | −7.88% | −2.80% | −3.98% | 3.09% | 4.89% | 2.27% | −0.62% | −10.33% | 22–52.6 [27] ng/mL | Plasma Concentration ([2]; patient 5, ANA 1 mg daily): 43.96 ng/mL |
| CN(C)C(=O)c1cc2cnc(Nc3ccc(N4CCNCC4)cn3)nc2n1C1CCCC1 [RIB, ribociclib] | 11.10% | −1.66% | −4.69% | −10.69% | 7.88% | 1.69% | 6.00% | 13.89% | −6.47% | 8.95% | 4.96% | 6.01% | 711–3500 [24] ng/mL | Elimination constant ([5]; non-compartmental analysis, PK solver): 0.022 h⁻¹; Cmax ([5]; human, first day of treatment cycle, plasma, read-out: Maximum concentration (Cmax)): 1830 ng/mL; half-life ([5]; human, plasma, non-compartmental analysis, PK solver, read-out: Elimination half-life (converted)): 31.6 h; concentration at 0 h ([5]; human, plasma, t 0.00 h, read-out: CRIB (ng/mL) plasma concentration): 945 ng/mL; concentration at 0.25 h ([5]; human, plasma, t 0.25 h, read-out: CRIB (ng/mL) plasma concentration): 1050 ng/mL; concentration at 0.5 h ([5]; human, plasma, t 0.50 h, read-out: CRIB (ng/mL) plasma concentration): 1240 ng/mL; concentration at 1 h ([5]; human, plasma, t 1.00 h, read-out: CRIB (ng/mL) plasma concentration): 1520 ng/mL; concentration at 3 h ([5]; human, plasma, t 3.00 h, read-out: CRIB (ng/mL) plasma concentration): 1830 ng/mL; concentration at 6 h ([5]; human, plasma, t 6.00 h, read-out: CRIB (ng/mL) plasma concentration): 1710 ng/mL; concentration at 12 h ([5]; human, plasma, t 12.00 h, read-out: CRIB (ng/mL) plasma concentration): 1500 ng/mL; concentration at 24 day ([2]; human, plasma, oral, patient 2, RIB 600 mg daily, sampling day 24 of cycle (off-treatment week)): 57.4 ng/mL; concentration at 16 day ([2]; human, plasma, oral, patient 3, RIB 600 mg daily, sampling day 16 (trough, steady state)): 682 ng/mL; concentration at 1 h ([2]; human, plasma, oral, RIB 600 mg daily, sampling day 1, 1 h after dose administration): 1520 ng/mL; concentration at 12 day ([2]; human, plasma, oral, patient 5, RIB 600 mg daily, sampling day 12 (trough, steady state)): 1190 ng/mL; concentration at 28 day ([2]; human, plasma, oral, patient 6, RIB 600 mg daily, sampling day 28 (off-treatment week)): 27.2 ng/mL; concentration at 27 day ([2]; human, plasma, oral, patient 7, RIB 600 mg daily): 40.7 ng/mL |

The next lines start with results.

| Stability Bias (%) 1 FT Cycle (30 min, −18–25 °C) [1, 6] | Stability Bias (%) 2 FT Cycles (30 min, −18–25 °C) [1, 6] | Stability Bias (%) 3 FT Cycles (30 min, −18–25 °C) [1, 6] | Stability Bias (%) Long-Term (2 Weeks, −18 °C) [1, 6] | Stability Bias (%) 1 FT Cycle (30 min, −18–25 °C) [1, 7] | Stability Bias (%) 2 FT Cycles (30 min, −18–25 °C) [1, 7] | Stability Bias (%) 3 FT Cycles (30 min, −18–25 °C) [1, 7] | Stability Bias (%) Long-Term (2 Weeks, −18 °C) [1, 7] | Stability Bias (%) Autosampler (10 h, 10 °C) [1, 6] | Stability Bias (%) Autosampler (10 h, 10 °C) [1, 7] | Stability Bias (%) Bench Top (2 h, 25 °C) [1, 6] | Stability Bias (%) Bench Top (2 h, 25 °C) [1, 7] | SMILES | Expected literature range Cmin–Cmax [3] | also measured |
| --- | --- | --- | --- | --- | --- | --- | --- | --- | --- | --- | --- | --- | --- | --- |
| 6.35% | −1.65% | −7.90% | −3.08% | 14.97% | 1.86% | 2.81% | 12.29% | 14.95% | 13.69% | −4.37% | 3.08% | CC(=O)c1c(C)c2cnc(Nc3ccc(N4CCNCC4)cn3)nc2n(C2CCCC2)c1=O [PAL, palbociclib] | 72.8–185.5 [26] ng/mL | concentration at 27 day ([2]; human, plasma, patient 8, PAL 125 mg daily): 7.55 ng/mL; Plasma Concentration (ng/mL) ([2]; patient 9, PAL 125 mg daily, sampling day 28 (off-treatment week)): <LOQ; Plasma Concentration (ng/mL) ([2]; patient 10, PAL 125 mg daily, sampling day 23 (off-treatment week)): <LOD |
| 2.23% | 4.49% | −7.51% | −1.62% | −14.59% | −13.24% | −8.90% | −5.01% | −8.06% | 7.38% | 2.32% | −9.36% | C[C@]12CC[C@@H]3c4ccc(O)cc4C[C@@H](CCCCCCCCC[S+]([O-])CCCC(F)(F)C(F)(F)F)[C@H]3[C@@H]1CC[C@@H]2O (stereo partly drawn) [FUL, fulvestrant] | 16–25 [29] ng/mL | Plasma Concentration ([2]; patient 7, FUL 500 mg monthly, intramuscular): 20.73 ng/mL; Plasma Concentration ([2]; patient 8, FUL 500 mg monthly, intramuscular): 22.69 ng/mL; Plasma Concentration ([2]; patient 9, FUL 500 mg monthly, intramuscular): 22.13 ng/mL; Plasma Concentration ([2]; patient 10, FUL 500 mg monthly, intramuscular): 24.56 ng/mL |
| 2.07% | −0.26% | −7.61% | −7.75% | −0.06% | −6.52% | −3.50% | −10.44% | −0.29% | 6.11% | 6.16% | −6.81% | N#Cc1ccc(C(c2ccc(C#N)cc2)n2cncn2)cc1 [LET, letrozole] | 28.4–349.2 [28] ng/mL | concentration at 1 h ([2]; human, plasma, LET 2.5 mg daily, 1 h after dose administration): 139 ng/mL; Plasma Concentration ([2]; patient 1, LET 2.5 mg daily): 109.99 ng/mL; Plasma Concentration ([2]; patient 2, LET 2.5 mg daily): 141.11 ng/mL; Plasma Concentration ([2]; patient 3, LET 2.5 mg daily): 146.21 ng/mL |
